Measurements reported in BindingDB's records for doi:10.1016/j.bmcl.2005.07.021 (Johnson & Johnson Pharmaceutical Research and Development, 2005).

Target: Glycogen phosphorylase, muscle form (Oryctolagus cuniculus) (UniProt P00489)
Test: Inhibitory concentration against glycogen phosphorylase of rabbit muscle

Chain of Glycogen phosphorylase, muscle form (Oryctolagus cuniculus) (P00489 whole entry, looked up): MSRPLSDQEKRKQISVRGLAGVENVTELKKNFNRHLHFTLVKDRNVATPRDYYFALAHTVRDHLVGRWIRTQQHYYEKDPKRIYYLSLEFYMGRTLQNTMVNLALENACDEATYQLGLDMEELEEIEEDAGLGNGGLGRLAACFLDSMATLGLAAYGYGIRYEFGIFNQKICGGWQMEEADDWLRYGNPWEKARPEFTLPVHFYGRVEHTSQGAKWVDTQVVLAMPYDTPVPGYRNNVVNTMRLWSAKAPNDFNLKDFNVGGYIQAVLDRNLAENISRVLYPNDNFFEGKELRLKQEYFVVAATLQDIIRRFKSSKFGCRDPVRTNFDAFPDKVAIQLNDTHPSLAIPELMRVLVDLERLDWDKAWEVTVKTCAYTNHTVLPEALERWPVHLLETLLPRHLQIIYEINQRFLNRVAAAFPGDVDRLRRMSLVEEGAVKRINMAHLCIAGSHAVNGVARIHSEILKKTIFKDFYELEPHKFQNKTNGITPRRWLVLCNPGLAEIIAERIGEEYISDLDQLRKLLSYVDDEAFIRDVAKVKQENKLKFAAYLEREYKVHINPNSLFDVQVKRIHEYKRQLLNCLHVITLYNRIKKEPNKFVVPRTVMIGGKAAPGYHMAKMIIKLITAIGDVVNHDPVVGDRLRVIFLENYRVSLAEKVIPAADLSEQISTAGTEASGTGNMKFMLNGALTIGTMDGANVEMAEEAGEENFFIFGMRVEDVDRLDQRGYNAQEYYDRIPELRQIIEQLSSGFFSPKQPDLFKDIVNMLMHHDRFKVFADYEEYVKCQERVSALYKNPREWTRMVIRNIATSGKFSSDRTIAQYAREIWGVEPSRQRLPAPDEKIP

IC50	Structure (SMILES)
> 10000 nM	CN(c1ccc(C(=O)Nc2ccon2)cc1)c1nc2ccccc2n(C)c1=O
2500 nM	Cn1c(=O)c(Nc2ccc(-c3ccc[nH]3)cc2)nc2ccccc21 [1-Methyl-3-[4-(1H-pyrrol-2-yl)-phenylamino]-1H-quinoxalin-2-one]
> 10000 nM	Cn1c(=O)c(Nc2ccc(NC(=O)c3ccc[nH]3)cc2)nc2ccccc21 [1H-Pyrrole-2-carboxylic acid [4-(4-methyl-3-oxo-3,4-dihydro-quinoxalin-2-ylamino)-phenyl]-amide]
5000 nM	Cn1c(=O)c(Nc2ccc(-c3ccoc3)cc2)nc2ccccc21 [3-(4-Furan-3-yl-phenylamino)-1-methyl-1H-quinoxalin-2-one]
2500 nM	O=c1[nH]c2ccccc2nc1Nc1ccccc1 [3-Phenylamino-1H-quinoxalin-2-one]
> 10000 nM	CC(C)n1c(=O)c(Nc2ccc(C(=O)NCc3cccs3)cc2)nc2ccccc21 [4-(4-Isopropyl-3-oxo-3,4-dihydro-quinoxalin-2-ylamino)-N-thiophen-2-ylmethyl-benzamide]
> 10000 nM	Cn1c(=O)c(Nc2ccc(C(=O)NCCc3cccs3)cc2)nc2ccccc21 [4-(4-Methyl-3-oxo-3,4-dihydro-quinoxalin-2-ylamino)-N-(2-thiophen-2-yl-ethyl)-benzamide]
710 nM	CN(C)CCn1c(=O)c(Nc2ccc(C(=O)NCc3cccs3)cc2)nc2ccccc21 [4-[4-(2-Dimethylamino-ethyl)-3-oxo-3,4-dihydro-quinoxalin-2-ylamino]-N-thiophen-2-ylmethyl-benzamide]
320 nM	O=C(NCc1cccs1)c1ccc(Nc2nc3ccccc3n(CCO)c2=O)cc1 [4-[4-(2-Hydroxy-ethyl)-3-oxo-3,4-dihydro-quinoxalin-2-ylamino]-N-thiophen-2-ylmethyl-benzamide]
5700 nM	O=C(O)Cn1c(=O)c(Nc2ccc(C(=O)NCc3cccs3)cc2)nc2ccccc21 [(2-Oxo-3-{4-[(thiophen-2-ylmethyl)-carbamoyl]-phenylamino}-2H-quinoxalin-1-yl)-acetic acid]
2500 nM	Cn1c(=O)c(Nc2ccc(NC(=O)c3ccco3)cc2)nc2ccccc21 [Furan-2-carboxylic acid [4-(4-methyl-3-oxo-3,4-dihydro-quinoxalin-2-ylamino)-phenyl]-amide]
> 10000 nM	Cn1c(=O)c(Nc2cccc(NC(=O)c3ccno3)c2)nc2ccccc21 [Isoxazole-5-carboxylic acid [3-(4-methyl-3-oxo-3,4-dihydro-quinoxalin-2-ylamino)-phenyl]-amide]
